Experimental data taken from PMC8465290, “Zoledronic Acid as a Novel Dual Blocker of KIR6.1/2-SUR2 Subunits of ATP-Sensitive K^+ Channels: Role in the Adverse Drug Reactions” (Pharmaceutics, 2021).

Experiments:
[1] = Pharmacovigilance analysis of A.D.R. in EudraVigilance database; parameters: species or system human; conditions: for rhabdomyolysis, % of A.D.R.: within musculoskeletal and connective tissue disorders
Description: All coding preferred terms per System Organ Class (S.O.C.) were screened in the EudraVigilance database (http://www.adrreports.eu/ accessed on 1 May 2021), and those potentially associated with KATP channel blocking actions were reported and subject to analysis.
The data were extracted from EudraVigilance, collected, and analyzed on Microsoft 365 Excel software package (Microsoft 10.00). The not specified category was not included in the calculation. The duplication of a specific report per S.O.C. was evaluated manually and excluded from the analysis.
The Proportional Reporting Ratio (P.R.R.) was calculated using the following equation: a/(a+c)/b/(b + d) where a is the reaction of interest to a given drug of interest, b is the reaction of interest for all other drugs in the class, c are all other reactions to a given drug of interest, and d are all other reactions to all other drugs in the class. Signal definition: P.R.R. ≥ 2, a minimum of three ratios/cases for the reaction of interest, X^2 ≥ 4. No signal is identified if P.R.R. is = 1 [47].

[2] = test system: KATP channels of femora primary bone cells; assay: KATP currents in cell-attached patches of femora (long bone) primary bone cells; format: cell-based, mice; conditions: C-A patches, nanomolar concentrations, Figure 1C
Procedure: The culture of primary bone cells from adult mice was obtained from long bones (tibia and femur) and calvaria, as previously described. Bones were collected, cleaned, and flushed for removing the internal bone marrow cells. Small bone pieces of around 1 mm^3 were treated with trypsin-EDTA 0.25% (w/v) for 1 h and with 0.2% collagenase solution for an additional hour in a shaking water bath to remove all remaining soft tissue and adherent cells. Clean bone pieces have been cultured in basal medium enriched with 50 µg/mL of ascorbic acid. Osteoblasts from femora (Figure S1A, Supplementary Material) and calvaria chips (Figure S1B) were positive to Alizarin red staining (Figure S1C). The marker of osteoblasts was positive, as tested by the PCR expression analysis on cell pellets (Figure S1D).
The solutions for whole-cell and cell attached patches were as follows. The pipette solution contained 132 mM KCl, 1 mM ethylene glycol-bis(β-aminoethylether)-N,N,N′,N′-tetraaceticacid (EGTA), 10 mM NaCl, 2 mM MgCl2, 10 mM HEPES, 1 mM Na2ATP, and 0.3 mM Na2GDP (pH = 7.2). The bath solution contained 142 mM NaCl, 2.8 mM KCl, 1 mM CaCl2, 1 mM MgCl2, 11 mM glucose, and 10 mM HEPES (pH = 7.4).
The whole-cell and cell-attached patch-clamp experiments were performed in asymmetrical K^+ ion concentration in physiological conditions using pipettes with the resistance of 3–5 MΩ.
Drug actions on the channel currents recorded during instantaneous I/V relationships were investigated by applying a depolarization protocol, in response to voltage pulses from −180 mV to +100 mV (Vm) in 20 mV steps. Currents were expressed as densities (pA/pF) to control for cell size/capacitance differences. All experiments were performed at room temperature (20–22 °C) and sampled at 2 kHz (filter = 1 kHz) using an Axopatch-1D amplifier equipped with a CV-4 headstage (Axon Instruments; Foster City, CA, USA). Drug solutions were applied using a fast perfusion system during the continuous monitoring of the seal resistance at 18–22 °C room temperature in excised patches. In whole-cell and cell-attached patch-clamp experiments, before recording, the cells were equilibrated for 10 s with the solution. Data acquisition and analysis were performed using pCLAMP 10 software suite (Axon Instruments; Foster City, CA, USA), as previously described. Seal resistance was continuously monitored during the experiment.
The percentage of KATP current inhibition induced by ZOL was calculated as (I CTRL-I drug)/(I CTRL-I BaCl2) × −100. The concentration response data of ZOL against different KATP channel currents were fitted by an algorithm using the non-linear dynamic fitting routine of Sigma Plot, 10.0.

[3] = within the KATP channel blockers

SMILES | hypoglycemia, % of the A.D.R. per S.O.C. [1] [%] | rhabdomyolysis, % of A.D.R. [1] [%] | Proportional Reporting Ratio (P.R.R.) hypoglycemia [1, 3] | Proportional Reporting Ratio (P.R.R.) arrhythmias [1, 3] | Proportional Reporting Ratio (P.R.R.) palpitations [1, 3] | Proportional Reporting Ratio (P.R.R.) rhabdomyolysis [1, 3] | inhibition of KATP currents in C-A patches (in words) [2]
CCC1=C(C)CN(C(=O)NCCc2ccc(S(=O)(=O)NC(=O)N[C@H]3CC[C@H](C)CC3)cc2)C1=O [glimepiride] | 75.6 | 17.7 | ≥ 2 | – | – | – | –
CC(C)[C@H]1CC[C@H](C(=O)N[C@H](Cc2ccccc2)C(=O)O)CC1 [nateglinide] | 77.9 | 18.4 | ≥ 2 | ≥ 2 | ≥ 2 | ≥ 2 | –
CCOc1cc(CC(=O)N[C@@H](CC(C)C)c2ccccc2N2CCCCC2)ccc1C(=O)O [repaglinide] | 84.6 | 17.8 | ≥ 2 | – | – | – | –
CCCCNC(=O)NS(=O)(=O)c1ccc(C)cc1 [tolbutamide] | – | – | – | – | – | – | less effective inhibitor
